Drawing on patent US11078228B2, “Ectonucleotidase inhibitors and methods of use thereof” (Calithera Biosciences, Inc., priority 2018, dated 2021), this text covers IC50 for 18 compounds.

Chain of recombinant CD73 (P21589 27-547): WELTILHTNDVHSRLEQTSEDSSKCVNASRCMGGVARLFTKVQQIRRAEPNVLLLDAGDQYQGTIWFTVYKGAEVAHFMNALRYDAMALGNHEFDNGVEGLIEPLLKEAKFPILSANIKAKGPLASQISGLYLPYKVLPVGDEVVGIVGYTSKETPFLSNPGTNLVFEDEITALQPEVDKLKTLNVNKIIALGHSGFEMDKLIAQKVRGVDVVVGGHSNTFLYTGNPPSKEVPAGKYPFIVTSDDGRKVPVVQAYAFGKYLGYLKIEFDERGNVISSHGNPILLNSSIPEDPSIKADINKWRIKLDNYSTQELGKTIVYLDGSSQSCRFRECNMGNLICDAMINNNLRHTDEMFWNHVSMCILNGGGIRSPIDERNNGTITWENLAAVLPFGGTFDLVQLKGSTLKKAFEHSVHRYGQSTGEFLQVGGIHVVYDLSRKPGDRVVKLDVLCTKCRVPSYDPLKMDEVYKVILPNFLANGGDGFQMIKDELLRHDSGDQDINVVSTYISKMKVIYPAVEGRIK

The target in this assay is recombinant CD73 (Homo sapiens (Human), UniProt P21589). Kind of assay: Assay 2: Inhibition of the CD73 enzyme in vitro (0.05 nM CD73, 1 hour 37° C., Malachite Green). Particulars: 0.05 nM CD73, 50 μM AMP, 1 hour at 37° C. The format is biochemical. Put shortly:
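Soluble recombinant CD73 reactions ran 1 hour at 37° C. Malachite Green was then added, and absorbance at 630 nm was read after 5 min at room temperature. Inorganic phosphate was quantified from a phosphate standard curve.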
By IC50 is commonly meant the concentration needed to halve the response being measured. As to `CC[C@@]1(O)[C@@H](COC(Cc2ccccc2)(C(=O)O)C(=O)O)O[C@@H](n2cnc3c(N)nc(Cl)nc32)[C@@H]1O` [Example 56, 2-(((2R,3S,4R,5R)-5-(6-amino-2-chloro-9H-purin-9-yl)-3-ethyl-3,4-dihydroxytetrahydrofuran-2-yl)methoxy)-2-benzylmalonic acid], the IC50 was more than 200 nM.
The value for `C#C[C@@]1(O)[C@@H](CO[C@](Cc2ccc(N3CCCNC3=O)cc2)(C(=O)O)C(=O)OCC)O[C@@H](n2cnc3c(N)nc(Cl)nc32)[C@@H]1O` (single isomer, unassigned) [Example 164] was 261 nM.
The value for `C#C[C@@]1(O)[C@@H](COC(Cc2ccccc2)(C(=O)O)C(=O)O)O[C@@H](n2cnc3c(N(C)C)nc(Cl)nc32)[C@@H]1O` [Example 89, 2-benzyl-2-(((2R,3S,4R,5R)-5-(2-chloro-6-(dimethylamino)-9H-purin-9-yl)-3-ethynyl-3,4-dihydroxytetrahydrofuran-2-yl)methoxy)malonic acid] was 1.1 nM.
For the compound `C#C[C@@]1(O)[C@@H](COC(Cc2ccc(N3CCCN(CCO)C3=O)cc2)(C(=O)O)C(=O)O)O[C@@H](n2cnc3c(NC(C)C)nc(Cl)nc32)[C@@H]1O` [Example 139, 2-(((2R,3S,4R,5R)-5-(2-chloro-6-(isopropylamino)-9H-purin-9-yl)-3-ethynyl-3,4-dihydroxytetrahydrofuran-2-yl)methoxy)-2-(4-(3-(2-hydroxyethyl)-2-oxotetrahydropyrimidin-1 (2H)-yl)benzyl)malonic acid], the IC50 is 0.13 nM.
As to `C#C[C@@]1(O)[C@@H](COC(Cc2ccnc(Cl)c2)(C(=O)O)C(=O)O)O[C@@H](n2cnc3c(N)nc(Cl)nc32)[C@@H]1O` [Compound 5, 2-(((2R,3S,4R,5R)-5-(6-amino-2-chloro-9H-purin-9-yl)-3-ethynyl-3,4-dihydroxytetrahydrofuran-2-yl)methoxy)-2-((2-chloropyridin-4-yl)methyl)malonic acid], the IC50 amounted to 4 nM.
The value for `C#C[C@@]1(O)[C@@H](COC(Cc2ccccc2)(C(=O)O)C(=O)O)O[C@@H](n2cnc3c(NCc4ccccc4Cl)nc(Cl)nc32)[C@@H]1O` [Example 77, 2-benzyl-2-(((2R,3S,4R,5R)-5-(2-chloro-6-((2-chlorobenzyl)amino)-9H-purin-9-yl)-3-ethynyl-3,4-dihydroxytetrahydrofuran-2-yl)methoxy)malonic acid] was 2 nM; that for `C#C[C@@]1(O)[C@@H](COC(Cc2ccccc2)(C(=O)O)C(=O)O)O[C@@H](n2cnc3c(N[C@H](C)CO)nc(Cl)nc32)[C@@H]1O` [Example 98, 2-benzyl-2-(((2R,3S,4R,5R)-5-(2-chloro-6-(((R)-1-hydroxypropan-2-yl)amino)-9H-purin-9-yl)-3-ethynyl-3,4-dihydroxytetrahydrofuran-2-yl)methoxy)malonic acid] was 2 nM; that for `C#C[C@@]1(O)[C@@H](COC(Cc2ccc(N3CCCNC3=O)cc2)(C(=O)O)C(=O)O)O[C@@H](n2cnc3c(N)cc(Cl)nc32)[C@@H]1O` [Example 157, 2-(((2R,3S,4R,5R)-5-(7-amino-5-chloro-3H-imidazo[4,5-b]pyridin-3-yl)-3-ethynyl-3,4-dihydroxytetrahydrofuran-2-yl)methoxy)-2-(4-(2-oxotetrahydropyrimidin-1(2H)-yl)benzyl)malonic acid] was 0.37 nM.
The value for `C#C[C@@]1(O)[C@@H](CO[C@@](Cc2ccccc2)(C(=O)O)c2cscn2)O[C@@H](n2cnc3c(NC(C)C)nc(Cl)nc32)[C@@H]1O` (single isomer, unassigned) [Example 171] was 96 nM.
Consider `C#C[C@@]1(O)[C@@H](COC(Cc2ccccc2)(C(=O)O)C(=O)O)O[C@@H](n2cnc3c(NC)nc(Cl)nc32)[C@@H]1O` [Example 71, 2-benzyl-2-(((2R,3S,4R,5R)-5-(2-chloro-6-(methylamino)-9H-purin-9-yl)-3-ethynyl-3,4-dihydroxytetrahydrofuran-2-yl)methoxy)malonic acid], for which the half-maximal inhibitory concentration (IC50) was determined as 6 nM.
For `C#C[C@@]1(O)[C@@H](COC(C(=O)O)C(=O)O)O[C@@H](n2cnc3c(NCc4ccccc4)nc(Cl)nc32)[C@@H]1O` [Example 118, 2-(((2R,3S,4R,5R)-5-(6-(benzylamino)-2-chloro-9H-purin-9-yl)-3-ethynyl-3,4-dihydroxytetrahydrofuran-2-yl)methoxy)malonic acid], the IC50 came out at 48 nM.
Turning to `C#C[C@@]1(O)[C@@H](COC(Cc2ccccc2)(C(=O)O)C(=O)OCC)O[C@@H](n2cnc3c(NCc4ccncc4)nc(Cl)nc32)[C@@H]1O` (stereo partly drawn) [Example 109, 2-benzyl-2-(((2R,3S,4R,5R)-5-(2-chloro-6-((pyridin-4-ylmethyl)amino)-9H-purin-9-yl)-3-ethynyl-3,4-dihydroxytetrahydrofuran-2-yl)methoxy)-3-ethoxy-3-oxopropanoic acid], the IC50 came out at 284 nM.
For `C#C[C@@]1(O)[C@@H](COC(Cc2ccc(-c3ccccc3C(=O)O)cc2)(C(=O)O)C(=O)O)O[C@@H](n2cnc3c(N)nc(Cl)nc32)[C@@H]1O` [Example 54, 2-(((2R,3S,4R,5R)-5-(6-amino-2-chloro-9H-purin-9-yl)-3-ethynyl-3,4-dihydroxytetrahydrofuran-2-yl)methoxy)-2-((2′-carboxy-[1,1′-biphenyl]-4-yl)methyl)malonic acid], the IC50 amounted to 0.2 nM.
The same measure for `C#C[C@@]1(O)[C@@H](COC(Cc2ccc(N3CCCNC3=O)cc2)(C(=O)O)C(=O)O)O[C@@H](n2ccc(N)nc2=O)[C@@H]1O` [Example 135, 2-(((2R,3S,4R,5R)-5-(4-amino-2-oxopyrimidin-1(2H)-yl)-3-ethynyl-3,4-dihydroxytetrahydrofuran-2-yl)methoxy)-2-(4-(2-oxotetrahydropyrimidin-1 (2H)-yl)benzyl)malonic acid]: 91 nM; for `C#C[C@@]1(O)[C@@H](COC(Cc2cncs2)(C(=O)O)C(=O)O)O[C@@H](n2cnc3c(N)nc(Cl)nc32)[C@@H]1O` [Example 143, 2-(((2R,3S,4R,5R)-5-(6-amino-2-chloro-9H-purin-9-yl)-3-ethynyl-3,4-dihydroxytetrahydrofuran-2-yl)methoxy)-2-(thiazol-5-ylmethyl)malonic acid]: 13 nM; for `C#C[C@@]1(O)[C@@H](COC(Cc2ccc(-c3cccnc3OC)cc2)(C(=O)O)C(=O)O)O[C@@H](n2cnc3c(N)nc(Cl)nc32)[C@@H]1O` [Example 22, 2-(((2R,3S,4R,5R)-5-(6-amino-2-chloro-9H-purin-9-yl)-3-ethynyl-3,4-dihydroxytetrahydrofuran-2-yl)methoxy)-2-(4-(2-methoxypyridin-3-yl)benzyl)malonic acid]: 0.3 nM.
Consider `C#C[C@@]1(O)[C@@H](COC(C(=O)O)C(=O)O)O[C@@H](n2cnc3c(NC)nc(Cl)nc32)[C@@H]1O` [Example 117, 2-(((2R,3S,4R,5R)-5-(2-chloro-6-(methylamino)-9H-purin-9-yl)-3-ethynyl-3,4-dihydroxytetrahydrofuran-2-yl)methoxy)malonic acid], for which the IC50 turned out to be 58 nM.
The value for `C#C[C@@]1(O)[C@@H](COC(Cc2ccccc2)(C(=O)O)C(=O)O)O[C@@H](n2cnc3c(N4CC[C@H](O)C4)nc(Cl)nc32)[C@@H]1O` [Example 65, 2-benzyl-2-(((2R,3S,4R,5R)-5-(2-chloro-6-((S)-3-hydroxypyrrolidin-1-yl)-9H-purin-9-yl)-3-ethynyl-3,4-dihydroxytetrahydrofuran-2-yl)methoxy)malonic acid] was 1 nM.
